Columns and labels:
[1] = test system: IL-4-induced macrophage cells; test: Residual cathepsin activity in IL-4-induced macrophages lacking CTSK (GB123 gel); type: cell-based, mouse; conditions: 5 μM, 2 h, then GB123
Experimental: (§1) Human and mouse CTSK species have a high degree of structural commonality. […] Therefore, to investigate the inhibitors’ cross-reactivity with mouse CTSK, mouse OCs were cultivated with mouse bone marrow cells stimulated with M-CSF and RANKL for 9–10 days. In addition, control cells differentiated into macrophages that highly express active cathepsins but not CTSK and were generated by treatment with M-CSF and IL-4.[49] Both intact OC and macrophage cells were incubated for 2 h with GD20, vehicle, or ODN, followed by a 2 h incubation with pan-cathepsin probe GB123. The CTSK-specific fluorescent band near 25 kDa disappeared in cells treated with GD20, whereas the other competing band remained unaltered (Figure 7a). Mice OS samples were blotted to identify the different cathepsins in the sample (Figure S9b).
(§2) Figure 7 CTSK inhibition in mice osteoclasts. (a) Activity and expression of CTSK in mouse OCs were assessed in the presence of indicated inhibitors. Intact OCs were treated for 2 h with 5 μM inhibitor in the culture medium, followed by 2 h of labeling of residual enzyme activity by GB123. Samples were analyzed by SDS-PAGE and scanned for fluorescence with a Typhoon scanner at 635/670 nm. Western blot with anti-CTSK is shown aside. […] Samples were analyzed by SDS-PAGE and scanned for fluorescence with a Typhoon scanner at 635/670 nm. […]

mouse CTSK in mouse OCs = biological target: T1, mouse CTSK in mouse OCs (Mus musculus, UniProt P55097); test: Residual cathepsin activity in mice osteoclasts (GB123 gel); type: cell-based; conditions: 5 μM, 2 h, then GB123 2 h
T1 construct: endogenous in cells; host or cells: osteoclasts differentiated from C57BL/6 mouse bone marrow
T1 sequence (P55097 115-329): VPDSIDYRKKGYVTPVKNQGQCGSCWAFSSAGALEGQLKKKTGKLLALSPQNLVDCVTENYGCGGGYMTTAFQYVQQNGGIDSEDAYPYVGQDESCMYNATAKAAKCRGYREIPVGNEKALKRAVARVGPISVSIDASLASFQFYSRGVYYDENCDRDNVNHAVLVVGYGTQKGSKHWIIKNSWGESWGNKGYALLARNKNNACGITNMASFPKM
Experimental: as §1, §2

## CC(C)C[C@H](N[C@@H](c1ccc(-c2ccc(S(C)(=O)=O)cc2)cc1)C(F)(F)F)C(=O)NCC(=O)COC(=O)[C@@H]1CCCN1C(=O)[C@H](CC(C)C)NC(=O)OCC1c2ccccc2-c2ccccc21 [GD20]
[1]
  inhibition of cathepsin bands in macrophages that lack CTSK: lack of inhibition of any band
Mouse CTSK in mouse OCs
  CTSK-specific fluorescent band near 25 kDa: disappeared

— paper PMC11938014, “Development and Application of Small Molecule–Peptide Conjugates as Cathepsin K-Specific Covalent Irreversible Inhibitors in Human Osteoclast and Lung Cancer” (JACS Au, 2025)
